Assay results from PubChem BioAssay (NCI).
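GI50 = concentration required for 50% inhibition of growth. At the TGI there is no net growth.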

Tests used:
Assay in all cases: DTP human tumour cell line panel, 384-well format
ACHN renal = system: ACHN renal
NCI-H322M lung = system: NCI-H322M lung
HOP-62 NSCLC = system: HOP-62 NSCLC
OVCAR-5 ovarian = system: OVCAR-5 ovarian
HCC-2998 colon = system: HCC-2998 colon
NCI/ADR-RES ovarian = system: NCI/ADR-RES ovarian
U251 glioblastoma = system: U251 glioblastoma
MCF7 breast = system: MCF7 breast
SF-268 CNS = system: SF-268 CNS
SF-539 CNS = system: SF-539 CNS
OVCAR-8 ovarian = system: OVCAR-8 ovarian
SK-MEL-28 melanoma = system: SK-MEL-28 melanoma
SK-MEL-2 melanoma = system: SK-MEL-2 melanoma
HT29 colon = system: HT29 colon
K-562 leukemia = system: K-562 leukemia
786-0 renal = system: 786-0 renal
TK-10 renal = system: TK-10 renal
CAKI-1 renal = system: CAKI-1 renal
A498 renal = system: A498 renal
SK-MEL-5 melanoma = system: SK-MEL-5 melanoma
MDA-MB-435 melanoma = system: MDA-MB-435 melanoma
OVCAR-4 ovarian = system: OVCAR-4 ovarian
SK-OV-3 ovarian = system: SK-OV-3 ovarian
RPMI-8226 leukemia = system: RPMI-8226 leukemia
MDA-MB-231 breast = system: MDA-MB-231 breast
UACC-257 melanoma = system: UACC-257 melanoma
RXF 393 renal = system: RXF 393 renal
M14 melanoma = system: M14 melanoma
SNB-19 CNS = system: SNB-19 CNS
EKVX NSCLC = system: EKVX NSCLC
HOP-92 NSCLC = system: HOP-92 NSCLC
COLO 205 colon = system: COLO 205 colon
HCT-15 colon = system: HCT-15 colon
KM12 colon = system: KM12 colon
PC-3 prostate = system: PC-3 prostate
A549 NSCLC = system: A549 NSCLC
SN12C renal = system: SN12C renal
T-47D breast = system: T-47D breast
SF-295 CNS = system: SF-295 CNS
LOX IMVI melanoma = system: LOX IMVI melanoma
OVCAR-3 ovarian = system: OVCAR-3 ovarian
MOLT-4 leukemia = system: MOLT-4 leukemia
UO-31 renal = system: UO-31 renal
HCT-116 colon = system: HCT-116 colon
DU-145 prostate = system: DU-145 prostate
SW-620 colon = system: SW-620 colon
NCI-H23 lung = system: NCI-H23 lung

For `O=C1Nc2ccc(I)cc2/C1=C/c1cc(Br)c(O)c(Br)c1`, the GI50 (ACHN renal) was 15.7 µM, the TGI (ACHN renal) was 35.7 µM and the GI50 (NCI-H322M lung) was 15.7 µM. It also gave a TGI (NCI-H322M lung) of 39.6 µM, a GI50 (HOP-62 NSCLC) of 20.4 µM and a TGI (HOP-62 NSCLC) of 39.9 µM. It also gave a GI50 (OVCAR-5 ovarian) of 25.1 µM, a TGI (OVCAR-5 ovarian) of 65 µM and a GI50 (HCC-2998 colon) of 22.8 µM. The TGI (HCC-2998 colon) was 38 µM, the GI50 (NCI/ADR-RES ovarian) was 18 µM and the TGI (NCI/ADR-RES ovarian) was 43.5 µM. For the same compound, the GI50 (U251 glioblastoma) was 11.7 µM, the TGI (U251 glioblastoma) was 24.3 µM and the GI50 (MCF7 breast) was 10.1 µM. It also gave a TGI (MCF7 breast) of 25.3 µM, a GI50 (SF-268 CNS) of 16.3 µM and a TGI (SF-268 CNS) of 52 µM. For the same compound, the GI50 (SF-539 CNS) was 15.4 µM, the TGI (SF-539 CNS) was 30.1 µM and the GI50 (OVCAR-8 ovarian) was 17.2 µM. The TGI (OVCAR-8 ovarian) was 37.4 µM, the GI50 (SK-MEL-28 melanoma) was 6.3 µM and the TGI (SK-MEL-28 melanoma) was 34.8 µM. The GI50 (SK-MEL-2 melanoma) was 15.4 µM, the TGI (SK-MEL-2 melanoma) was 30.7 µM and the GI50 (HT29 colon) was 14.1 µM. It also gave a TGI (HT29 colon) of 31.1 µM, a GI50 (K-562 leukemia) of 17 µM and a TGI (K-562 leukemia) of 31.1 µM. For the same compound, the GI50 ([…]-0 renal) was 13.9 µM, the TGI (786-0 renal) was 27.4 µM and the GI50 (TK-10 renal) was 21.6 µM. The TGI (TK-10 renal) was 78.1 µM, the GI50 (CAKI-1 renal) was 21.3 µM and the TGI (CAKI-1 renal) was 43.9 µM. The GI50 (A498 renal) was 16 µM, the TGI (A498 renal) was 30.7 µM and the GI50 (SK-MEL-5 melanoma) was 12.3 µM. For the same compound, the TGI (SK-MEL-5 melanoma) was 24.8 µM, the GI50 (MDA-MB-435 melanoma) was 8.13 µM and the TGI (MDA-MB-435 melanoma) was 29.1 µM. It also gave a GI50 (OVCAR-4 ovarian) of 19.1 µM, a TGI (OVCAR-4 ovarian) of 47.1 µM and a GI50 (SK-OV-3 ovarian) of 16.2 µM. The TGI (SK-OV-3 ovarian) was 34.8 µM, the GI50 (RPMI-8226 leukemia) was 6.64 µM and the TGI (RPMI-8226 leukemia) was 19.2 µM. The GI50 (MDA-MB-231 breast) was 14 µM, the TGI (MDA-MB-231 breast) was 31.7 µM and the GI50 (UACC-257 melanoma) was 14.9 µM. It also gave a TGI (UACC-257 melanoma) of 33.3 µM, a GI50 (RXF 393 renal) of 12.6 µM and a TGI (RXF 393 renal) of 25.5 µM. For the same compound, the GI50 (M14 melanoma) was 4.38 µM, the TGI (M14 melanoma) was 18.6 µM and the GI50 (SNB-19 CNS) was 21.4 µM. It also gave a TGI (SNB-19 CNS) of 56.3 µM, a GI50 (EKVX NSCLC) of 14.3 µM and a TGI (EKVX NSCLC) of 30.2 µM. The GI50 (HOP-92 NSCLC) was 15.6 µM, the TGI (HOP-92 NSCLC) was 31.9 µM and the GI50 (COLO 205 colon) was 10.2 µM. It also gave a TGI (COLO 205 colon) of 23.5 µM, a GI50 (HCT-15 colon) of 15.7 µM and a TGI (HCT-15 colon) of 30.6 µM. The GI50 (KM12 colon) was 12.5 µM, the TGI (KM12 colon) was 27.6 µM and the GI50 (PC-3 prostate) was 13.6 µM. The TGI (PC-3 prostate) was 27.1 µM, the GI50 (A549 NSCLC) was 17.2 µM and the TGI (A549 NSCLC) was 46 µM. The GI50 (SN12C renal) was 21.6 µM, the TGI (SN12C renal) was 48.5 µM and the GI50 (T-47D breast) was 12.8 µM. The TGI (T-47D breast) was 30 µM, the GI50 (SF-295 CNS) was 11.9 µM and the TGI (SF-295 CNS) was 34.2 µM. For the same compound, the GI50 (LOX IMVI melanoma) was 13 µM, the TGI (LOX IMVI melanoma) was 29.4 µM and the GI50 (OVCAR-3 ovarian) was 6.34 µM. The TGI (OVCAR-3 ovarian) was 19.2 µM, the GI50 (MOLT-4 leukemia) was 13.4 µM and the TGI (MOLT-4 leukemia) was 26.2 µM. It also gave a GI50 (UO-31 renal) of 13.1 µM, a TGI (UO-31 renal) of 28.2 µM and a GI50 (HCT-116 colon) of 16.3 µM. For the same compound, the TGI (HCT-116 colon) was 30.4 µM, the GI50 (DU-145 prostate) was 22.9 µM and the TGI (DU-145 prostate) was 88.9 µM. The GI50 (SW-620 colon) was 16.9 µM, the TGI (SW-620 colon) was 31.4 µM and the GI50 (NCI-H23 lung) was 14.1 µM. For the same compound, the TGI (NCI-H23 lung) was 27.6 µM.
